System: AKR18A1
Experiment: HPLC substrate decrease, Michaelis-Menten fit
Format: biochemical, Sphingomonas sp. S3-4
Details: 45 °C

NC(=O)C1=CN([C@@H]2O[C@H](COP(=O)(O)OP(=O)(O)OC[C@H]3O[C@@H](n4cnc5c(N)ncnc54)[C@H](O)[C@@H]3O)[C@@H](O)[C@H]2O)C=CC1 [NADH]
Km (reduction of 3-oxo-DON, sodium phosphate pH 7.0, printed unit mM is doubtful, probably a misprint for μM (assays use 0.2 mM NADH)): 78 ± 28 mM

NC(=O)c1ccc[n+]([C@@H]2O[C@H](COP(=O)(O)OP(=O)(O)OC[C@H]3O[C@@H](n4cnc5c(N)ncnc54)[C@H](OP(=O)(O)O)[C@@H]3O)[C@@H](O)[C@H]2O)c1 [NADP^+]
Km (oxidation of DON, glycine-NaOH pH 10.6): 0.48 ± 0.07 mM

Reference: article PMC5573404, “An aldo-keto reductase is responsible for Fusarium toxin-degrading activity in a soil Sphingomonas strain” (Scientific Reports, 2017)
